Laboratory results as given in patent US20020055171A1, “PREPARATION OF BIOLOGICALLY ACTIVE 3-METHYLENEOXINDOLE AND DEFINITION OF ITS APPLICATION IN STIMULATION OF PLANT GROWTH AND TISSUE REPAIR” (priority 1998, published 2002).

Columns and labels:
[1] = system: Parenchyma tissue from heads of romaine lettuce; assay: Formation of callus tissue in lettuce parenchyma sections; format: cell-based; settings: 7 days at 26 degrees in the dark, average initial weight 0.04 g
Source text: Note: Parenchyma tissue was obtained from heads of romaine lettuce. Cylinders measuring 5 mm in diameter and 20 mm in length were removed with a cork borer from the stalks of lettuce heads. The cylinders were sterilized in a 10% solution of commercial bleach (sodium hypochlorite). Three (3) mm wide circular sections were removed from the sterilized cylinders and 10 sections were placed in petri dishes containing various concentrations of auxins and MO formulated in sterilized agar/mineral salts/kinin media. The sections were incubated at 26 degrees in the dark for seven (7) days. At the end of the incubation period, the callus tissue in each treatment was weighed and the average weight of each section was recorded. The average initial weight of the sections was 0.04 g.

[2] = system: explants of Nicotiana tobaccum, Ficus benjamina, Kalanchoe, and Hosta; assay: Stage II (multiplication) micropropagation of explants; format: cell-based
Source text: MO produced an equivalent amount of growth at 10^−8 M and maximal growth at 10^−7 M.
Stage II and Stage III micropropagation of various plant species using IAA or MO as auxin source. Explants were placed in various concentrations of sterilized IAA or MO formulated in sterilized agar/mineral salts/kinnin media.

[3] = system: cuttings from 12-day old bean plants; assay: Root formation in bean cuttings planted in treated vermiculite; format: in vivo; settings: for Average dry wt (grams) of root mass (14 days after treatment): 10 cuttings per treatment
Method: Legend to Table I. Ten (10) cuttings were used per treatment. Cuttings were obtained from 12-day old bean plants by excising each plant above the cotyledonery node. The cuttings were planted in vermiculite treated with various concentrations of the indicated compounds. Fourteen days after treatment, the portion of the cutting subtending the root mass was removed and dried for 48 hrs. at 50° C.

plants = assay: Physiological (auxin) responses of plants compared with IAA; settings: MO obtained from purified 3-Brox
Source text: It is well known that at suitable concentrations, IAA can stimulate the growth of excised stem segments, promote root development in cuttings, and in combination with another group of plant growth substances known as kinins, can regenerate intact plants from single cells or meristematic tissue.

hardwood trees = assay: Wound healing (callus formation) on sawed-off branches of hardwood trees, lanolin paste; format: in vivo; settings: final concentration 10^−5M, compared with IAA
Source text: Use of pure solutions of MO to stimulate healing in plants by aiding in the formation of callus tissue at the wound site. This would have the prophylactic effect of preventing infection in wounded trees. Application of MO in a solution, gel or lanolin paste preparation induces rapid formation of protective callus tissue. Refer to Table II for data summary. Large branches of hardwood trees were sawed off and treated with either IAA or MO prepared in lanolin paste.

[4] = system: cuttings from tomatoes, begonias, African violets, roses, soybeans and peas; assay: Root formation in cuttings from various plants; format: in vivo
Source text: Use of MO and its solutions prepared by novel methods for stimulation of root formation in plant cuttings and as replacement for IAA or synthetic auxins in plant tissue culture. […] Refer to FIG. 2 for typical response of cuttings to test compounds and Table I for data summary.

[5] = system: explants of various plant species; assay: Stage III (rooting) micropropagation of explants; format: cell-based; settings: Stage III (rooting) medium
Source text: Stage III micropropagation of various plant species using IAA or MO as auxin source. Explants were placed in various concentrations of sterilized IAA or MO formulated in sterilized agar/mineral salts/kinnin media

Hosta = assay: Micropropagation of Hosta in Stage I, II and III media; format: cell-based
Source text: Photographic evidence showing the comparative response of explants to IAA and MO in Stage II and Stage III growth media is available on request. A description of the photos is provided herein.

[6] = Stage II (multiplication) medium

Which results are given for `O=C(O)Cc1c[nH]c2ccccc12` [IAA, Indole-3-acetic acid]?
Weight in grams of Callus tissue ([1]; 10^−4 moles/L): 0.08 g; Weight in grams of Callus tissue ([1]; 10^−5 moles/L): 0.25 g; Weight in grams of Callus tissue ([1]; 10^−6 moles/L): 1.2 g; Weight in grams of Callus tissue ([1]; 10^−7 moles/L): 0.80 g; Weight in grams of Callus tissue ([1]; 10^−8 moles/L): 0.40 g; concentration required to produce maximal growth [2, 6]: 10^−5 M; Emergence of roots (No. of days after treatment) ([3]; 10^−4M): 7 days; Average dry wt (grams) of root mass (14 days after treatment) ([3]; 10^−4M): 8 grams; Emergence of roots (No. of days after treatment) ([3]; 10^−5M): 7 days; Average dry wt (grams) of root mass (14 days after treatment) ([3]; 10^−5M): 10 grams; Emergence of roots (No. of days after treatment) ([3]; 10^−6M): 9 days; Average dry wt (grams) of root mass (14 days after treatment) ([3]; 10^−6M): 7 grams

`O=C(O)CCCc1c[nH]c2ccccc12` [IBA, indolebutyric acid] was tested. Which “Weight in grams of Callus tissue” value ([1]; 10^−4 moles/L) did it give?
The value was 0.05 g.

What about the “Weight in grams of Callus tissue” value ([1]; 10^−5 moles/L) of the same molecule?
The value was 0.18 g.

And the “Weight in grams of Callus tissue” value ([1]; 10^−6 moles/L)?
The value was 0.70 g.

And the “Weight in grams of Callus tissue” value ([1]; 10^−7 moles/L)?
The value was 0.55 g.

What about the “Weight in grams of Callus tissue” value ([1]; 10^−8 moles/L) of the same molecule?
The value was 0.12 g.

What about the “Emergence of roots (No. of days after treatment)” value ([3]; 10^−4M) of the same molecule?
The value was 9 days.

What about the “Average dry wt (grams) of root mass (14 days after treatment)” value (from here on “Average dry wt (grams) of root mass”) ([3]; 10^−4M) of the same molecule?
Its value is 5 grams.

What about the “Average dry wt (grams) of root mass” value ([3]; 10^−5M) of the same molecule?
The value was 7 grams.

And the “Emergence of roots (No. of days after treatment)” value ([3]; 10^−6M)?
The value was 5 days.

What about the “Average dry wt (grams) of root mass” value ([3]; 10^−6M) of the same molecule?
Its value is 7 grams.

Which results are given for `C=C1C(=O)Nc2ccccc21` [MO, 3-methyleneoxindole]?
fold as effective as IAA in eliciting physiological responses (plants): 100-1000 fold; healing of wound by callus formation (hardwood trees): healed rapidly by forming callus tissue over the wound; root formation compared with IAA, napthaleneacetic acid and indolebutyric acid [4]: more profuse roots in a much shorter time and at significantly lower concentrations; Weight in grams of Callus tissue ([1]; 10^−4 moles/L): 0.02 g; Weight in grams of Callus tissue ([1]; 10^−5 moles/L): 0.15 g; Weight in grams of Callus tissue ([1]; 10^−6 moles/L): 1.5 g; Weight in grams of Callus tissue ([1]; 10^−7 moles/L): 1.95 g; Weight in grams of Callus tissue ([1]; 10^−8 moles/L): 1.75 g; concentration producing growth equivalent to IAA at its most effective concentration [2, 6]: 10^−8 M; concentration required to produce maximal growth [2, 6]: 10^−7 M; fold more effective than IAA and the synthetic auxins ([2]; Stage II medium): 1,000 fold; fold more effective than IAA and the synthetic auxins [5]: 1,000 fold; Emergence of roots (No. of days after treatment) ([3]; 10^−6M): 4 days; Average dry wt (grams) of root mass (14 days after treatment) ([3]; 10^−6M): 11 grams; Emergence of roots (No. of days after treatment) ([3]; 10^−7M): 4 days; Average dry wt (grams) of root mass (14 days after treatment) ([3]; 10^−7M): 13 grams; Emergence of roots (No. of days after treatment) ([3]; 10^−8M): 6 days; Average dry wt (grams) of root mass (14 days after treatment) ([3]; 10^−8M): 10 grams; effectiveness compared with synthetic auxins (Hosta): far more effective than the synthetic auxins

How did the “Weight in grams of Callus tissue” value ([1]; 10^−4 moles/L) turn out when `O=C(O)Cc1cccc2ccccc12` [NAA, napthaleneacetic acid] was run?
Its value is 0.06 g.

And the “Weight in grams of Callus tissue” value ([1]; 10^−5 moles/L)?
Its value is 0.15 g.

What about the “Weight in grams of Callus tissue” value ([1]; 10^−6 moles/L) of the same molecule?
The value was 0.85 g.

What about the “Weight in grams of Callus tissue” value ([1]; 10^−7 moles/L) of the same molecule?
The value was 0.60 g.

What about the “Weight in grams of Callus tissue” value ([1]; 10^−8 moles/L) of the same molecule?
Its value is 0.20 g.

And the “Emergence of roots (No. of days after treatment)” value ([3]; 10^−4M)?
The value was 8 days.

And the “Average dry wt (grams) of root mass” value ([3]; 10^−4M)?
The value was 5 grams.

And the “Emergence of roots (No. of days after treatment)” value ([3]; 10^−5M)?
Its value is 9 days.

And the “Average dry wt (grams) of root mass” value ([3]; 10^−5M)?
The value was 7 grams.

And the “Emergence of roots (No. of days after treatment)” value ([3]; 10^−6M)?
The value was 8 days.

What about the “Average dry wt (grams) of root mass” value ([3]; 10^−6M) of the same molecule?
Its value is 2 grams.
